Two compounds from US10570123B2 (SURFACE LOGIX, LLC, priority 2005, dated 2020) can be followed below.

The target of test [1] is ROCK2 (Homo sapiens (Human), UniProt O75116). Description: Inhibition of ROCK2. Conditions: FIG. 10 legend, qualitative. The test is classed as biochemical. From the text: Methods of determining kinase inhibition are well known in the art. For example, kinase activity of an enzyme and the inhibitory capacity of a test compound can be determined by measuring enzyme specific phosphorylation of a substrate. Commercial assays and kits can be employed. For example, kinase inhibition can be determined using an IMAP® assay (Molecular Devices). This assay method involves the use of a fluorescently-tagged peptide substrate. Phosphorylation of the tagged peptide by a kinase of interest promotes binding of the peptide to a trivalent metal-based nanoparticle via the specific, high affinity interaction between the phospho-group and the trivalent metal. Proximity to the nanoparticle results in increased fluorescence polarization. Inhibition of the kinase by a kinase inhibitor prevents phosphorylation of the substrate and thereby limits binding of the fluorescently-tagged substrate to the nanoparticle. […]
ROCK-II inhibitory activity can be measured using the ROCK-II Assay Kit (Molecular Devices, inc.; Sunnyvale, Calif.).
Inhibition of ROCK2 by various compounds was determined.
Inhibitory activity for Rho kinase was determined for examples of compounds of the present invention. […] For each of these compounds their inhibitory activity for both ROCK 1 and ROCK 2 was determined. […]

The test system of test [2] is PKC. Nature of the test: Inhibition of PKC (FIG. 10 comparison). The test is classed as biochemical. Conditions: FIG. 10 legend, qualitative.

Chain of ROCK2 (O75116 whole entry, species assumed): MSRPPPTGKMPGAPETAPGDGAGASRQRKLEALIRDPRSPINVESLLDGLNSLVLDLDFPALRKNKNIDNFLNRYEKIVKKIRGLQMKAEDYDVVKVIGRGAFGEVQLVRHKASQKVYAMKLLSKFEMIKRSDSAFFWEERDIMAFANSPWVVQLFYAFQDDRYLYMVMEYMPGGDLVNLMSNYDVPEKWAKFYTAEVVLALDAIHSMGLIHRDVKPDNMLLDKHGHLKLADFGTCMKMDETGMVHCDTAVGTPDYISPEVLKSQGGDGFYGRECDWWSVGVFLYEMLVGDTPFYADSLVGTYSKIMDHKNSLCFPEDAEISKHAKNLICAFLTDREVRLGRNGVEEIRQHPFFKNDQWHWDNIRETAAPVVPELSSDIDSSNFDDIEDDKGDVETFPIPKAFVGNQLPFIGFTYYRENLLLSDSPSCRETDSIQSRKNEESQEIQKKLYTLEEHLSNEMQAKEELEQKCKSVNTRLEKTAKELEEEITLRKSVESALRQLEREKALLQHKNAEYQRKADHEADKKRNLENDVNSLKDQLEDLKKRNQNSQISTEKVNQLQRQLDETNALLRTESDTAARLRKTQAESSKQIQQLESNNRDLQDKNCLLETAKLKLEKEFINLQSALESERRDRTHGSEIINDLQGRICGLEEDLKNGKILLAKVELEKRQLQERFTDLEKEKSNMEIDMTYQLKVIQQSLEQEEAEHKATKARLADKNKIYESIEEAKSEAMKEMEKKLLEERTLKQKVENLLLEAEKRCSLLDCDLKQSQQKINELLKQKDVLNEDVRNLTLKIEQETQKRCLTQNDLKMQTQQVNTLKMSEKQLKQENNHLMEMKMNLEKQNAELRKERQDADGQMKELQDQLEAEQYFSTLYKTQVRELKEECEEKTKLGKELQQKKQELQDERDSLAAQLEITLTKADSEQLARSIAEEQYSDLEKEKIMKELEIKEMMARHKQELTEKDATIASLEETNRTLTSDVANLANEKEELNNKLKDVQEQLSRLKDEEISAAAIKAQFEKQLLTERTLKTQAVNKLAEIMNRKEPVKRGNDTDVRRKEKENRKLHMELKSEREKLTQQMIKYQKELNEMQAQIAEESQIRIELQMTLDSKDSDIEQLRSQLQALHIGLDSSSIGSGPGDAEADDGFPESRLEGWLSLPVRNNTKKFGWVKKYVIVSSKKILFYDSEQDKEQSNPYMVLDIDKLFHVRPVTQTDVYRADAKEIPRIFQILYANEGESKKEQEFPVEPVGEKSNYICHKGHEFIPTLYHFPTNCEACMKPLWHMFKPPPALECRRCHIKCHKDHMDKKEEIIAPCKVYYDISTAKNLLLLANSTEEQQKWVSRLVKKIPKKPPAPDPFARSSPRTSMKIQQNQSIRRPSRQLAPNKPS

For the compound `CC(C)NC(=O)COc1cccc(-c2nc(Nc3ccc4[nH]ncc4c3)c3ccccc3n2)c1` [Example 82, 2-(3-(4-(1H-indazol-5-ylamino)quinazolin-2-yl)phenoxy)-N-isopropylacetamide], the “inhibition of ROCK2 (FIG. 10)” value in test [1] is recorded as “specific inhibition of ROCK2”.
For `C[C@@H](N)[C@H]1CC[C@H](C(=O)Nc2ccncc2)CC1` [Example Y27632], in test [2], the “inhibition of PKC (FIG. 10)” value is reported as “inhibits”. Moreover, in test [1], the “inhibition of ROCK2 (FIG. 10)” value is “inhibits”.
